According to publication PMC12006171, “Marsupial cathelicidins: characterization, antimicrobial activity and evolution in this unique mammalian lineage” (Frontiers in Immunology, 2025):
In brackets after ≈: the same amount, converted by molar mass. Like-named read-outs stand apart in the source and are kept apart here. Where a SMILES comes first, the peptide text is derived from it.

How the values were obtained:
[1] = tested on: Tasmanian devil facial tumor disease; details: cited from earlier work
Source text: Many marsupial and monotreme cathelicidins were closely related to the classic cathelicidins found in eutherians. These cathelicidins sit within clade II in the phylogenetic tree, sister to eutherians but were not orthologous ( Figure 3 ). Classic marsupial cathelicidins were encoded in cluster A in the genome of all marsupials and monotremes studied, syntenic to the single cathelicidin gene/cluster in eutherians ( Figure 2 ). Many of these were antimicrobial and bactericidal, with MICs equal to or less than eutherian peptides such as cow BMAP-27 and -28 ([87]) and human LL-37, including again ...

[2] = tested on: three fungi (Candida krusei, Candida parapsilosis, Candida albicans); design: method as in 4 sources, ref Peel et al 2016 ||| ref Peel et al 2021 ||| ref Wang et al 2011 ||| ref Peel et al 2017; details: mature peptide; Y/N summary from earlier study; ref Peel et al 2016; cited from earlier work
[3] = tested on: six bacteria (S. aureus, E. coli, P. aeruginosa; ATCC and clinical isolate); design: method as in 4 sources, ref Peel et al 2016 ||| ref Peel et al 2021 ||| ref Wang et al 2011 ||| ref Peel et al 2017; details: mature peptide; Y/N summary from earlier study; ref Peel et al 2016; cited from earlier work
[4] = tested on: Escherichia coli ATCC 25922; assay: microbe, parasite or virus in culture; assay type: cell-based
Procedure, shortened: (§1)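 Each isolate was exposed to twofold peptide dilutions (final 64-0.125μg/mL) in Mueller Hinton broth, optionally supplemented with calcium and magnesium or 10% lysed horse blood. The MIC was taken as the lowest concentration lacking visible growth after 20–24 hours at 35°C.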

[5] = tested on: Staphylococcus aureus ATCC 29213; assay: microbe, parasite or virus in culture; assay type: cell-based; details: ATCC 29213; read-out: MIC S. aureus ATCC
Procedure, shortened: as §1

[6] = tested on: Staphylococcus aureus clinical isolate - animal; assay: microbe, parasite or virus in culture; assay type: cell-based; details: clinical isolate - animal; read-out: MIC S. aureus
Procedure, shortened: as §1

[7] = tested on: Pseudomonas aeruginosa clinical isolate - animal; assay: microbe, parasite or virus in culture; assay type: cell-based
Procedure, shortened: as §1

[8] = tested on: Pseudomonas aeruginosa ATCC 27853; assay: microbe, parasite or virus in culture; assay type: cell-based
Procedure, shortened: as §1

[9] = tested on: Escherichia coli clinical isolate - animal; assay: microbe, parasite or virus in culture; assay type: cell-based
Procedure, shortened: as §1

E. coli ATCC 25922 = assay: Killing kinetics (time kill assay); assay type: cell-based, Escherichia coli; details: MHB, 35°C, sampled 1-24 hours, n = 2
Description: The killing kinetics assay was conducted using mid-logarithmic phase cultures of E. coli ATCC 25922 and S. aureus ATCC 29213 in MHB. Cultures were adjusted to a 0.5 McFarland standard, diluted in MHB, and then 100µL was added to each culture tube containing 10mL pre-warmed MHB to give a final inoculum concentration of 5 x 10^5 CFU/mL. A sterility control of 100uL MHB, growth control (no cathelicidin), and vehicle control (DMSO) were also included. Furthermore, 10uL was immediately removed from the growth control tube, diluted 1/1000 in saline and 100µL plated onto MHA in duplicate to confirm inoculum density. To establish colony counts from 0 hours of cathelicidin treatment, 200µL was removed from each culture tube and serially diluted ten-fold in saline from 10^0 to […] in a total volume of 200µL. Then, 10µL of each dilution was spotted onto MHA in duplicate, which were incubated at 35°C for 24 hours.
All culture tubes were then incubated at 35°C static. At 1, 2, 4, 6, 8, 10, 12, and 24 hours post-cathelicidin treatment, 200µL was removed from each culture tube for dilution and plated on MHA as described above. […] Counts of duplicates were averaged, and the log10 CFU/mL graphed against time. This was used as input for one-way ANOVA (p < 0.05) followed by Dunnett’s post hoc test.

[10] = tested on: Streptococcus agalactiae ATCC 12386; assay: microbe, parasite or virus in culture; assay type: cell-based; details: ATCC 12386; read-out: MIC S. agalactiae ATCC
Procedure, shortened: (§2)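 Endpoint is visible-growth inhibition (MIC) after 35°C, 20–24 h incubation. Yeast medium was RPMI-1640 MOPS; bacterial medium was Mueller Hinton broth, with or without divalent cations and lysed horse blood. Final peptide range 64-0.125μg/mL.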

[11] = tested on: Streptococcus pneumoniae ATCC 49619; assay: microbe, parasite or virus in culture; assay type: cell-based; details: ATCC 49619; read-out: MIC S. pneumoniae ATCC
Procedure, shortened: as §2

[12] = tested on: Candida parapsilosis ATCC 22019; assay: microbe, parasite or virus in culture; assay type: cell-based; details: ATCC 22019
Procedure, shortened: as §2

[13] = tested on: Streptococcus agalactiae Clinical isolate - animal; assay: microbe, parasite or virus in culture; assay type: cell-based; details: clinical isolate - animal; read-out: MIC S. agalactiae
Procedure, shortened: as §2

[14] = tested on: Candida albicans Clinical isolate - human; assay: microbe, parasite or virus in culture; assay type: cell-based; details: Clinical isolate - human; read-out: MIC C. albicans
Procedure, shortened: as §2

Candida krusei ATCC 6258 = assay: microbe, parasite or virus in culture; assay type: cell-based; details: ATCC 6258; read-out: MIC C. krusei ATCC
Procedure, shortened: as §2

[15] = tested on: six bacteria (S. aureus, E. coli, P. aeruginosa; ATCC and clinical isolate); assay type: cell-based
Procedure, shortened: as §1

[16] = MHB without cations, 5 x 10^5 CFU/mL, 35°C 20–24 hours, duplicate
[17] = superscript value, cation-adjusted Mueller Hinton broth
[18] = value in brackets, 99.9% reduction in CFU/mL
[19] = clinical isolate, MHB without cations, 5 x 10^5 CFU/mL, 35°C 20–24 hours, duplicate
[20] = clinical isolate, superscript value, cation-adjusted Mueller Hinton broth
[21] = clinical isolate, value in brackets, 99.9% reduction in CFU/mL

KIKRIGLGGFIGRILDRIRRLG [SahaCath5, Tasmanian devil cathelicidin, reference compound]
Toxicity to Tasmanian devil facial tumor disease [1]: toxic to Tasmanian devil facial tumor disease | Antifungal (MIC <64ug/mL) [2]: Y (Peel et al 2016) (Antifungal (MIC <64ug/mL)) | Antibacterial (MIC <64ug/mL) [3]: Y (Peel et al 2016) (Antibacterial (MIC <64ug/mL))

CC[C@H](C)[C@H](NC(=O)[C@H](CCCCN)NC(=O)[C@@H](NC(=O)[C@H](CC(N)=O)NC(=O)[C@H](CCCCN)NC(=O)[C@H](CC(C)C)NC(=O)[C@H](CCCNC(=N)N)NC(=O)[C@H](CCCCN)NC(=O)[C@H](CCCCN)NC(=O)[C@@H](NC(=O)[C@H](CO)NC(=O)[C@H](CCCCN)NC(=O)CNC(=O)[C@H](CC(C)C)NC(=O)[C@H](CCCCN)NC(=O)[C@H](CCCCN)NC(=O)[C@H](CC(C)C)NC(=O)[C@H](CCCCN)NC(=O)[C@H](CCCCN)NC(=O)[C@H](CCCNC(=N)N)NC(=O)[C@H](CC(C)C)NC(=O)CNC(=O)[C@H](CCCNC(=N)N)NC(=O)[C@@H](N)CO)[C@@H](C)CC)[C@@H](C)CC)C(=O)NCC(=O)N[C@@H](Cc1ccc(O)cc1)C(=O)N[C@@H](CO)C(=O)N[C@H](C(=O)N1CCC[C@H]1C(=O)N[C@@H](Cc1ccccc1)C(=O)N1CCC[C@H]1C(=O)NCC(=O)O)[C@@H](C)CC [PspeCath1] (H-SRGLRKKLKKLGKSIKKRLKNIKIGYSIPFPG-OH; N-terminus and C-terminus assumed)
MBC E. coli ATCC ([4]; ATCC 25922): 2.1 µM | MIC ([4]; ATCC 25922, read-out: MIC E. coli ATCC): 1 µM (≈ 3.65 µg/mL) | MIC ([4]; ATCC 25922, read-out: MIC in the presence of cations E. coli ATCC): 1 µM | MIC E. coli ATCC [4, 16]: 4 µg/mL (≈ 1.09 µM) | MIC in the presence of cations E. coli ATCC [4, 17]: 4 µg/mL | MBC E. coli ATCC [4, 18]: 8 µg/mL | MIC [5]: >17.5 µM | MIC [6]: >17.5 µM | MBC P. aeruginosa ([7]; clinical isolate - animal): 4.3 µM | MIC ([7]; clinical isolate - animal, read-out: MIC P. aeruginosa): 2.1 µM (≈ 7.67 µg/mL) | MIC ([7]; clinical isolate - animal, read-out: MIC in the presence of cations P. aeruginosa): 2.1 µM | MIC P. aeruginosa [7, 19]: 8 µg/mL (≈ 2.19 µM) | MIC in the presence of cations P. aeruginosa [7, 20]: 8 µg/mL | MBC P. aeruginosa [7, 21]: 16 µg/mL | MBC P. aeruginosa ATCC ([8]; ATCC 27853): 2.1 (2.1)^2.1 µM | MIC P. aeruginosa ATCC ([8]; ATCC 27853): 2.1 (2.1)^2.1 µM | MIC in the presence of cations P. aeruginosa ATCC ([8]; ATCC 27853): 2.1 (2.1)^2.1 µM | MIC P. aeruginosa ATCC [8, 16]: 8 (8)^8 µg/mL | MIC in the presence of cations P. aeruginosa ATCC [8, 17]: 8 (8)^8 µg/mL | MBC P. aeruginosa ATCC [8, 18]: 8 (8)^8 µg/mL | MBC E. coli ([9]; clinical isolate - animal): 1 µM | MIC ([9]; clinical isolate - animal): 1 µM (≈ 3.65 µg/mL) | MIC in the presence of cations E. coli ([9]; clinical isolate - animal): 0.5 µM | MIC E. coli [9, 19]: 4 µg/mL (≈ 1.09 µM) | MIC in the presence of cations E. coli [9, 20]: 2 µg/mL | MBC E. coli [9, 21]: 4 µg/mL | Number of hours to cause a significant reduction in log CFU/mL of E. coli ATCC (p < 0.05) (E. coli ATCC 25922; 0.5x MIC): 2 hours | Number of hours to cause a significant reduction in log CFU/mL of E. coli ATCC (p < 0.05) (E. coli ATCC 25922; 2x MIC): 1 hours | Number of hours to cause a significant reduction in log CFU/mL of E. coli ATCC (p < 0.05) (E. coli ATCC 25922; MIC): 2 hours | MIC [10]: >17.5 µM | MIC [11]: >17.5 µM | MFC C. parapsilosis ATCC [12]: > 17.5 µM | MIC ([12]; read-out: MIC C. parapsilosis ATCC): 8.75 µM (≈ 32 µg/mL) | MIC [13]: >17.5 µM | MIC [14]: >17.5 µM | MIC (Candida krusei ATCC 6258): >17.5 µM | MIC against at least one strain [15]: 4 µg/mL (≈ 1.09 µM)

KRIRFFERIRDRLRDLGNRIKNRIRDFFS [SahaCath6, Tasmanian devil cathelicidin, reference compound]
Toxicity to Tasmanian devil facial tumor disease [1]: toxic to Tasmanian devil facial tumor disease | Antifungal (MIC <64ug/mL) [2]: Y (Peel et al 2016) (Antifungal (MIC <64ug/mL)) | Antibacterial (MIC <64ug/mL) [3]: Y (Peel et al 2016) (Antibacterial (MIC <64ug/mL))
